Reference: patent US9789181B2, “PAN-DR binding polypeptides and uses thereof” (Epimmune Inc., priority 2009, dated 2017)
Where no end group is shown, it is not given here.

Legend:
purified HLA DRB1 *0802 = purified HLA DRB1 *0802 (Homo sapiens, UniProt P01903+P01911, A100R/A103L/A169T/F76Y/H45Y/I96F/K41T/L162R/M171V/P40S/Q125H/Q178H/Q39Y/Q99D/R218S/R42G/S66Y/V115G/W38E); experiment: IC50nM to purified HLA | DRB1 *0802
Protocol: (§1) Table printed on a drawing sheet, FIG. 1
Head of the field: IC50nM to purified HLA | DRB1 *0802
(§2) First copying reader's note: The comma is the decimal sign and the point a thousands separator (e.g. 21.831); some values are printed bold or italic and some SEQ ID NOs underlined, with no legend on the sheet.
Where the first naming reader finds the target: head: IC50nM to purified HLA | DRB1 *0802

purified HLA DRB1 *0701 = purified HLA DRB1 *0701 (Homo sapiens, UniProt P01903+P01911, A100R/A102G/A103Q/D57E/D86V/E43K/F76Y/K127E/L162R/M171V/P40G/Q125H/Q99D/R33Q/R42Y/R54Q/S133A/S66F/T210M/V115G/Y107V/Y59L/Y89S); experiment: IC50nM to purified HLA | DRB1 *0701
Protocol: as §1
Head of the field: IC50nM to purified HLA | DRB1 *0701
as §2
Where the first naming reader finds the target: head: IC50nM to purified HLA | DRB1 *0701

purified HLA DRB1 *0401 = purified HLA DRB1 *0401 (Homo sapiens, UniProt P01903+P01911, A100K/A169T/F76Y/I96L/K127E/L162R/M171V/N62H/P40V/Q125Y/R42H/S133A/S149N/S66Y/V115G/V209L/W38E); experiment: IC50nM to purified HLA | DRB1 *0401
Protocol: as §1
Head of the field: IC50nM to purified HLA | DRB1 *0401
as §2
Where the first naming reader finds the target: head: IC50nM to purified HLA | DRB1 *0401

purified HLA DRB1 *1501 = purified HLA DRB1 *1501 (Homo sapiens, UniProt P01903+P01911); experiment: IC50nM to purified HLA | DRB1 *1501
Protocol: as §1
Head of the field: IC50nM to purified HLA | DRB1 *1501
as §2
Where the first naming reader finds the target: head: IC50nM to purified HLA | DRB1 *1501

purified HLA DRB1 *0301 = purified HLA DRB1 *0301 (Homo sapiens, UniProt P01903+P01911, A100K/A102G/A103R/A169T/F55Y/I96L/K41T/L162R/M171V/P40S/Q125H/Q178H/Q39Y/R42S/S66N/T106N/T262R/W38E/Y61H); experiment: IC50nM to purified HLA | DRB1 *0301
Protocol: as §1
Head of the field: IC50nM to purified HLA | DRB1 *0301
as §2
Where the first naming reader finds the target: head: IC50nM to purified HLA | DRB1 *0301

purified HLA DRB1 *1302 = purified HLA DRB1 *1302 (Homo sapiens, UniProt P01903+P01911, A100E/A169T/K41T/L162R/M171V/P40S/Q125H/Q178H/Q39Y/Q99D/R42S/S66N/T262R/V115G/W38E/Y61H); experiment: IC50nM to purified HLA | DRB1 *1302
Protocol: as §1
Head of the field: IC50nM to purified HLA | DRB1 *1302
as §2
Where the first naming reader finds the target: head: IC50nM to purified HLA | DRB1 *1302

purified HLA DRB4 *0101 = purified HLA DRB4 *0101 (Homo sapiens, UniProt P01903+P13762, G164S); experiment: IC50nM to purified HLA | DRB4 *0101
Protocol: as §1
Head of the field: IC50nM to purified HLA | DRB4 *0101
as §2
Where the first naming reader finds the target: head: IC50nM to purified HLA | DRB4 *0101

purified HLA DRB5 *0101 = purified HLA DRB5 *0101 (Homo sapiens, UniProt P01903+Q30154); experiment: IC50nM to purified HLA | DRB5 *0101
Protocol: as §1
Head of the field: IC50nM to purified HLA | DRB5 *0101
as §2
Where the first naming reader finds the target: head: IC50nM to purified HLA | DRB5 *0101

purified HLA DRB1 *0101 = purified HLA DRB1 *0101 (Homo sapiens, UniProt P01903+P01911, A100R/D57E/F55L/F60I/F76Y/I96L/L162R/M171V/P40L/Q125E/R42F/V115G/Y59C); experiment: IC50nM to purified HLA | DRB1 *0101
Protocol: as §1
Head of the field: IC50nM to purified HLA | DRB1 *0101
as §2
Where the first naming reader finds the target: head: IC50nM to purified HLA | DRB1 *0101

purified HLA DRB1 *0901 = purified HLA DRB1 *0901 (Homo sapiens, UniProt P01903+P01911, A100R/A103E/D57H/D86V/F55Y/F60I/F76Y/I96F/K127E/L162R/M171V/P40D/Q125H/Q99R/R33Q/R42F/S133A/S66N/T210M/V115G/W38K/Y107V/Y59G/Y89S); experiment: IC50nM to purified HLA | DRB1 *0901
Protocol: as §1
Head of the field: IC50nM to purified HLA | DRB1 *0901
as §2
Where the first naming reader finds the target: head: IC50nM to purified HLA | DRB1 *0901

purified HLA DRB1 *0405 = purified HLA DRB1 *0405 (Homo sapiens, UniProt P01903+P01911, A100R/A169T/D86S/F76Y/I96L/K127E/L162R/M171V/N62H/P40V/Q125Y/R42H/S133A/S149N/S66Y/V115G/V209L/W38E); experiment: IC50nM to purified HLA | DRB1 *0405
Protocol: as §1
Head of the field: IC50nM to purified HLA | DRB1 *0405
as §2
Where the first naming reader finds the target: head: IC50nM to purified HLA | DRB1 *0405

purified HLA DRB1 *0404 = purified HLA DRB1 *0404 (Homo sapiens, UniProt P01903+P01911, A100R/A169T/F76Y/I96L/K127E/L162R/M171V/N62H/P40V/Q125Y/R42H/S133A/S149N/S66Y/V209L/W38E); experiment: IC50nM to purified HLA | DRB1 *0404
Protocol: as §1
Head of the field: IC50nM to purified HLA | DRB1 *0404
as §2
Where the first naming reader finds the target: head: IC50nM to purified HLA | DRB1 *0404

purified HLA DRB1 *1101 = purified HLA DRB1 *1101 (Homo sapiens, UniProt P01903+P01911, A100R/A169T/A87E/I96F/K41T/L162R/M171V/P40S/Q125H/Q178H/Q39Y/Q99D/R42S/S66Y/T262R/V115G/W38E); experiment: IC50nM to purified HLA | DRB1 *1101
Protocol: as §1
Head of the field: IC50nM to purified HLA | DRB1 *1101
as §2
Where the first naming reader finds the target: head: IC50nM to purified HLA | DRB1 *1101

Chain of purified HLA DRB1 *1101 (P01903 26-254 limits assumed, other chains not shown): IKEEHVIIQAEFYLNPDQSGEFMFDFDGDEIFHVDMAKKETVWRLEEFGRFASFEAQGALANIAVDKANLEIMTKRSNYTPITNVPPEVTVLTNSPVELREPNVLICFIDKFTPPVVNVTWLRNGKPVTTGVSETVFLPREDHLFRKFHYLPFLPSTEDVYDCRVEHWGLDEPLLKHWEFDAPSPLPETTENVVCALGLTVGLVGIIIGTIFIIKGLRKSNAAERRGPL
Chain of purified HLA DRB4 *0101 (P01903 26-254 limits assumed): as the sequence (P01903 26-254 limits assumed, other chains not shown) above
Chain of purified HLA DRB4 *0101 (P13762 whole entry G164S): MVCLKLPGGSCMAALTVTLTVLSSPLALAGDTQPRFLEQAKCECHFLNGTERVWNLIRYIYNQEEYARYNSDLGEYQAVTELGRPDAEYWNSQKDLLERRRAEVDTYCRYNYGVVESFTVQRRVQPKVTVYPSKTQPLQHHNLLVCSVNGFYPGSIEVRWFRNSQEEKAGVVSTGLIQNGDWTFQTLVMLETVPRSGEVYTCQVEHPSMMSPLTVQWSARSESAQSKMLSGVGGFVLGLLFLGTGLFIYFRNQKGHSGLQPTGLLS
Chain of purified HLA DRB1 *0301 (P01903 26-254 limits assumed, other chains not shown): as the sequence (P01903 26-254 limits assumed, other chains not shown) above
Chain of purified HLA DRB1 *1302 (P01903 26-254 limits assumed, other chains not shown): as above

Row | IC50 (purified HLA DRB1 *0802) [nM] | IC50 (purified HLA DRB1 *0701) [nM] | IC50 (purified HLA DRB1 *0401) [nM] | IC50 (purified HLA DRB1 *1501) [nM] | IC50 (purified HLA DRB1 *0301) [nM] | IC50 (purified HLA DRB1 *1302) [nM] | IC50 (purified HLA DRB4 *0101) [nM] | IC50 (purified HLA DRB5 *0101) [nM] | IC50 (purified HLA DRB1 *0101) [nM] | IC50 (purified HLA DRB1 *0901) [nM] | IC50 (purified HLA DRB1 *0405) [nM] | IC50 (purified HLA DRB1 *0404) [nM] | IC50 (purified HLA DRB1 *1101) [nM] | Molecule
1 | 6.1 | – | 1.6 | – | – | 917 | 291 | 5.9 | 2.7 | – | 6.6 | 1.4 | 11 | AAAYFVAAWTLKAAA [SEQ ID NO: 20]
2 | 5.2 | 65 | 2.3 | 4 | 77 | 830 | 445 | – | – | 11 | 7.3 | 1.9 | – | AAAYFVAAYTLHAAA [SEQ ID NO: 22]
3 | 20 | 91 | 5.3 | 64 | – | 7050 | – | – | 7.2 | 32 | 22 | 2.7 | 65 | AAAFFVAAWTLKADA [SEQ ID NO: 16]
4 | – | – | 4.5 | 66 | – | – | 12500 | 9.4 | 43 | 113 | 8.4 | 6.1 | 57 | AAAFFVAAFTLKADA [SEQ ID NO: 18]

Further lines, the molecule ahead of its results:

Row | Molecule | IC50 (purified HLA DRB1 *0802) [nM] | IC50 (purified HLA DRB1 *0701) [nM] | IC50 (purified HLA DRB1 *0401) [nM] | IC50 (purified HLA DRB1 *1501) [nM] | IC50 (purified HLA DRB1 *0301) [nM] | IC50 (purified HLA DRB1 *1302) [nM] | IC50 (purified HLA DRB4 *0101) [nM] | IC50 (purified HLA DRB5 *0101) [nM] | IC50 (purified HLA DRB1 *0101) [nM] | IC50 (purified HLA DRB1 *0901) [nM] | IC50 (purified HLA DRB1 *0405) [nM] | IC50 (purified HLA DRB1 *0404) [nM] | IC50 (purified HLA DRB1 *1101) [nM]
5 | AAAWFVAANTLHAAA [SEQ ID NO: 10] | 8.6 | 43 | 2.9 | 101 | 174 | 38 | 606 | 22 | 3.8 | 33 | – | – | –
6 | CC(C)C[C@H](NC(=O)[C@@H](NC(=O)[C@H](Cc1c[nH]c2ccccc12)NC(=O)[C@H](C)NC(=O)[C@H](C)NC(=O)[C@@H](NC(=O)[C@H](Cc1ccccc1)NC(=O)[C@H](CCCCN)NC(=O)[C@H](C)N)C(C)C)[C@@H](C)O)C(=O)N[C@@H](CCCCN)C(=O)N[C@@H](C)C(=O)N[C@@H](C)C(=O)N[C@@H](C)C(=O)O [SEQ ID NO: 3] | 9.5 | 97 | 1.4 | 37 | 289 | 367 | 447 | 19 | 4 | 50 | 32 | 0.79 | 9.1
7 | AAAFFVAAWTLKAAA [SEQ ID NO: 11] | – | 74 | 2.4 | 32 | 227 | 2810 | 517 | 9.9 | 5.7 | 31 | 31 | 7.3 | 27
8 | AAAWFVAAWTLKAAA [SEQ ID NO: 5] | 8.5 | – | 3.1 | 31 | 161 | 2930 | 566 | 9.3 | – | 35 | – | 3.8 | –
9 | AAAKFVAAWTLKAAA [SEQ ID NO: 4] | 5.2 | 49 | – | 9.8 | 209 | 648 | 207 | 5.4 | 3.3 | – | 25 | 2.9 | 11
